Assay results taken from ChEMBL document CHEMBL1127866, “Cyclopentanespiro-3H-dihydro-pyrimidinones as Angiotensin II AT1 receptor antagonists” (Bioorg Med Chem Lett, 1994).

Key:
[1] = target: T1, Type-1 angiotensin II receptor B (Rattus norvegicus, UniProt P29089); assay: In vitro inhibition of specific binding of [125I]AII to Angiotensin II receptor, type 1 from rat liver membrane
T1 sequence (P29089 whole entry): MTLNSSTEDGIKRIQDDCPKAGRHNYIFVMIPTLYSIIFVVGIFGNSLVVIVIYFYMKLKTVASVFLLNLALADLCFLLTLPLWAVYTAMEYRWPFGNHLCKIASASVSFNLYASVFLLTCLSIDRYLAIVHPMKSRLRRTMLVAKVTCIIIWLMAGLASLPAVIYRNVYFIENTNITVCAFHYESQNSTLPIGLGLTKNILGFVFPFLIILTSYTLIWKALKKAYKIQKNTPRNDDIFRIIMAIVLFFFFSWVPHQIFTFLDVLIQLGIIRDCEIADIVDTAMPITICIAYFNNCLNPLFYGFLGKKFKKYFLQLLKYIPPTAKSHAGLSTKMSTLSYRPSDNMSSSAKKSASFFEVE

Rattus norvegicus [2] = assay: Tested for induced pressor response to AII (40 ng/kg, iv) in conscious normotensive rats at a compound dose of 3 mg/kg po for 60 min; type: functional
Monkey [3] = assay: Tested for induced pressor response to AII (100 ng/kg, iv) in conscious normotensive monkey at a compound dose of 3 mg/kg po for 4 hr; type: functional, Cercopithecidae
Rattus norvegicus [4] = assay: Tested for induced pressor response to AII (40 ng/kg, iv) in conscious normotensive rats at a compound dose of 3 mg/kg po for 30 min; type: functional
Rattus norvegicus [5] = assay: Tested for induced pressor response to AII (40 ng/kg, iv) in conscious normotensive rats at a compound dose of 3 mg/kg po for 90 min; type: functional
Monkey [6] = assay: Tested for induced pressor response to AII (100 ng/kg, iv) in conscious normotensive monkey at a compound dose of 3 mg/kg po for 2 hr; type: functional, Cercopithecidae
Monkey [7] = assay: Tested for induced pressor response to AII (100 ng/kg, iv) in conscious normotensive monkey at a compound dose of 3 mg/kg po for 1 hr; type: functional, Cercopithecidae
Rattus norvegicus [8] = assay: Tested for induced pressor response to AII (40 ng/kg, iv) in conscious normotensive rats at a compound dose of 3 mg/kg po for 120 min; type: functional
Rattus norvegicus [9] = assay: Tested for induced pressor response to AII (40 ng/kg, iv) in conscious normotensive rats at a compound dose of 3 mg/kg po for 180 min; type: functional
Rattus norvegicus [10] = assay: Tested for induced pressor response to AII (40 ng/kg, iv) in conscious normotensive rats at a compound dose of 3 mg/kg po for 0 min; type: functional
Rattus norvegicus [11] = assay: Tested for induced pressor response to AII (40 ng/kg, iv) in conscious normotensive rats at a compound dose of 3 mg/kg po for 15 min; type: functional
Monkey [12] = assay: Tested for induced pressor response to AII (100 ng/kg, iv) in conscious normotensive monkey at a compound dose of 3 mg/kg po for 3 hr; type: functional, Cercopithecidae
Monkey [13] = assay: Tested for induced pressor response to AII (100 ng/kg, iv) in conscious normotensive monkey at a compound dose of 3 mg/kg po for 0 hr; type: functional, Cercopithecidae
Monkey [14] = assay: Tested for induced pressor response to AII (100 ng/kg, iv) in conscious normotensive monkey at a compound dose of 3 mg/kg po for 5 hr; type: functional, Cercopithecidae

SMILES	IC50 [1] [nM]	Delta MAP (Rattus norvegicus [2]) [mmHg]	Delta MAP (Monkey [3]) [mmHg]	Delta MAP (Rattus norvegicus [4]) [mmHg]	Delta MAP (Rattus norvegicus [5]) [mmHg]	Delta MAP (Monkey [6]) [mmHg]	Delta MAP (Monkey [7]) [mmHg]	Delta MAP (Rattus norvegicus [8]) [mmHg]	Delta MAP (Rattus norvegicus [9]) [mmHg]	Delta MAP (Rattus norvegicus [10]) [mmHg]	Delta MAP (Rattus norvegicus [11]) [mmHg]	Delta MAP (Monkey [12]) [mmHg]	Delta MAP (Monkey [13]) [mmHg]	Delta MAP (Monkey [14]) [mmHg]
CCCCC1=NC(=O)C2(CCCC2)CN1Cc1ccc(-c2ccccc2C(=O)O)cc1	1300													
CCCCC1=NCC2(CCCC2)C(=O)N1Cc1ccc(-c2ccccc2C(=O)O)cc1	71													
CCCCC1=NC2(CCCC2)CC(=O)N1Cc1ccc(-c2ccccc2C(=O)O)cc1	53													
CCCCC1=NC2(CCCC2)C(C)(C)C(=O)N1Cc1ccc(-c2ccccc2-c2nnn[nH]2)cc1	2.2													
CCCCC1=NC2(CCCC2)CC(=O)N1Cc1ccc(-c2ccccc2-c2nn[nH]n2)cc1	1	~14	~32	~15	~18	~29	~27	~15	~17	~35	~10	~29	~33	
CCCCC1=NC2(CCCC2)C(=O)N1Cc1ccc(-c2ccccc2-c2nnn[nH]2)cc1 [IRBESARTAN]		~20	~23	~22	~17	~15	~9	~18	~17	~45	~22	~18	~33	~25
